# Values of other authors as cited in US6147189A, “Polypeptides that include conformation-constraining groups which flank a protein-protein interaction site” (Virginia Commonwealth University, priority 1997, dated 2000).
# Where a SMILES comes first, the peptide text is derived from it.
# System: receptors of sweet tasting papillae
# Details: comparison value
structure (smiles),measurement,value
COC(=O)[C@H](Cc1ccccc1)NC(=O)[C@@H](N)CC(=O)O [aspartame] (H-Asp-Phe-OMe),Sweetness compared with sugar,160 times sweeter than sugar
